In article PMC11215077, “Antiviral activity of temporin-1CEb analogues against gingival infection with herpes simplex virus type 1” (Frontiers in Oral Health, 2024):
Square brackets hold non-standard residues; d marks the D form. Peptide text beside a SMILES is read from it. AEEA = NCCOCCOCC(=O)O

Legend:
[1] = tested on: HSV-1; experiment: Attachment (adsorption) assay in TIGKs cells; format: cell-based, herpes simplex virus type 1; conditions: 15 μg/ml present only during infection, 2 h at 4°C, 48 h
Procedure: HSV-1 stocks were generated by infecting Vero E6 cells. Cells were lysed at 48 h p.i. by two freeze-thaw cycles. The virus containing fluid was aliquoted and stored at −80°C. A control Vero E6 cell lysate from mock-infected cells was prepared in the same manner as the virus stock. Virus yield was assessed by virus titration on fully confluent Vero E6 cells in 96-well plates, according to the method of Reed & Muench ([32]). Plates were incubated at 37°C for 48 h and the occurrence of a cytopathic effect was scored using an inverted microscope, and TCID50 (50% tissue culture infection dose) was calculated.
TIGKs cells were seeded in 12-well plates and cultured for 48 h. Next, keratinocytes were infected with HSV-1 (TCID50 400 /ml) or treated with mock in the presence of DAL-PEG-LK6 or CPP1-PEG-LK6 (15 μg/ml) for 2 h at 4°C. […] Next, samples were collected, and viral yield was determined using titration and qPCR.
(§1) Viral DNA was isolated from the conditioned media or the apical washes of inserts (OTG model) using Viral DNA/RNA Isolation Kit (A&A Biotechnology). The virus yield assessed by quantitative real-time PCR (qPCR). […] DNA quantification standards were prepared. […] The number of copies per mL was estimated after the concentration of linearized DNA was assessed spectrophotometrically.

[2] = tested on: HSV-1; experiment: Antiviral activity in 3D organotypic model of human gingiva (OTG); format: cell-based, herpes simplex virus type 1
Procedure: Protocol was described previously ([34]). Briefly, to prepare 3D cultures, 150,000 gingival fibroblasts suspended in 10% FBS in DMEM were mixed with 2.4 ml of ice-cold Matrigel® (Corning) (final concentration 7 mg/ml) and placed in the middle of 12-well cell culture inserts (Greiner). Three days later, 1 × 10^6 TIGK cells suspended in EPM1 were added to the top of the insert. On the ninth day after the start of the procedure, the old culture medium was removed and EPM2 was added to the bottom of the insert. The epithelial layer on the top was exposed to the air, which promotes epithelial differentiation and then stratification. About 8–10 days after air-liquid interphase, 3D cultures of gingiva were used for further experiments.
The apical surface of OTG model was washed three times with PBS and then inoculated with 100 μl of viral stock (TCID50 400 /ml) in the presence of DAL-PEG-LK6 or CPP1-PEG-LK6 (15 μg/ml) for 2 h at 4°C. Following incubation, the unbound HSV-1 was removed by washing with PBS for 10 min at 37°C, and the OTG cultures were maintained at an air-liquid interface for the rest of the experiment. To determine viral yield, 120 μl of PBS was applied to the apical surface of the OTG, and harvested for DNA isolation after 10 min of incubation at 37°C.
Briefly, cell inserts were fixed in 10% formaldehyde at 4°C for 1 h. After embedding in paraffin, 3D cultures were cut into 5 μm sections and stained with H&E solution. For immunohistochemical analysis, slides were incubated for 1 h at room temperature in blocking buffer (5% normal goat serum, 0.1% saponin in PBS) and stained with primary antibodies anti-HSV-1 (1:100, 1% normal goat serum, 0.1% saponin in PBS; Abcam) and secondary antibodies: goat anti-rabbit conjugated with Alexa Fluor 488 (1:2000; Cell Signaling). Finally, cell nuclei were stained with ProLong Antifade Mounting Medium with DAPI. Slides were visualized with EVOS FL Cell Imaging System (Thermo Fisher Scientific).
Viral DNA was isolated from the conditioned media or the apical washes of inserts (OTG model) using Viral DNA/RNA Isolation Kit (A&A Biotechnology). The virus yield assessed by quantitative real-time PCR (qPCR). The reaction was carried out in a CFX96 Touch Real-Time PCR Detection System (Bio-Rad), in a 10 μl reaction mixture consisting of TaqMan^TM Fast Advanced Master Mix, TaqMan^TM Microbe Detection assay against HSV-1 (Vi04230116_s1) and 1 μl of viral DNA. The temperature profile was 10 s at 95°C, followed by 40 cycles of 3 s at 95°C and 20 s at 60°C. DNA quantification standards were prepared. In summary, a fragment of viral DNA was amplified using the primers listed above and cloned into the pTZ57R/T plasmid using the InsTAclone PCR cloning kit. The plasmid was propagated in E. coli, purified with the GeneJet Plasmid Miniprep Kit, and digested with the EcoR1 restriction enzyme. The number of copies per mL was estimated after the concentration of linearized DNA was assessed spectrophotometrically.

[3] = Azure A metachromatic assay; format: binding; conditions: HS 0.2 mg/ml, Azure A 23 μg/ml, peptide 1–300 μg/ml, 15 min at RT
Procedure: The possible interaction of peptide conjugate with HS was investigated by incubation the mixtures containing a constant concentration of HS (0.2 mg/ml, Sigma Aldrich) and solutions of CPP1-PEG-LK6 at different concentrations (1–300 μg/ml). Next, the mixtures were shaken for 15 min at room temperature. […] Azure A, a cationic dye when binding to heparin and/or HS changes its adsorption spectrum ([35]).

[4] = tested on: HSV-1 clinical strains (294.1, 615.9, C08R, C10B); experiment: Viral replication assay with HSV-1 clinical strains; format: cell-based, herpes simplex virus type 1; conditions: 15 μg/ml, qPCR 48 h p.i.
Procedure: HSV-1 strain F was acquired from American Type Culture Collection (VR 733). Clinical isolates of HSV-1 (294.1, 615.9, C08R, C10B) were kindly provided by Donald M. Coen from Department of Biological Chemistry and Molecular Pharmacology, Harvard Medical School, Boston. HSV-1 strains were propagated and titrated on Vero cells.
Vero E6 or TIGKs cells were seeded in 12-well plates and cultured for 48 h. Next, the medium was removed and replaced with a fresh medium supplemented with DAL-PEG-LK6 and CPP1-PEG-LK6 (15 μg/ml). After 30 min of incubation at 37°C, cells were infected with HSV-1 at TCID50 400 /ml or treated with mock. After 2 h of infection at 37°C, unbound viral particles were removed by washing with PBS, and culture media supplemented with peptide conjugates were applied. Following 48 h of incubation, media were collected, and the quantity of HSV-1 DNA copies was assessed using titration and qPCR.
as §1

With CC[C@H](C)[C@H](NC(=O)COCCOCCNC(=O)[C@@H](NC(=O)[C@H](CC(C)C)NC(=O)[C@H](Cc1ccc(O)cc1)NC(=O)[C@@H](NC(=O)[C@H](Cc1ccccc1)NC(=O)[C@@H]1CCCN1)C(C)C)[C@@H](C)CC)C(=O)N[C@@H](CCCCN)C(=O)N[C@@H](CCCCN)C(=O)N[C@H](C(=O)N[C@@H](CC(C)C)C(=O)N[C@@H](CO)C(=O)N[C@@H](CCCCN)C(=O)N[C@H](C(=O)N[C@@H](CCCCN)C(=O)N[C@@H](CCCCN)C(=O)N[C@@H](CC(C)C)C(=O)N[C@@H](CC(C)C)C(=O)N[C@@H](CCCCN)C(N)=O)[C@@H](C)CC)[C@@H](C)CC [CPP1-PEG-LK6] (H-PFVYLI[AEEA]IKKILSKIKKLLK-NH2) the “decrease in viral yield, attachment assay, qPCR” value ([1]; Figure 2D) was about 95%, the “decrease in viral titer, attachment assay, titration” value ([1]; Figure 2E) was about 97% and the “reduction of viral yield in OTG at 48 h” value ([2]; 15 μg/ml during inoculation 2 h at 4°C, apical washes, qPCR, 48 h post-viral inoculation) was 3 logs. The “reduction of viral yield in OTG at 72 h” value ([2]; 15 μg/ml during inoculation 2 h at 4°C, apical washes, qPCR, 72 h post-viral inoculation) was 2 logs, the “morphology of epithelial cells in OTG (H&E)” value ([2]; 15 μg/ml, H&E stained sections, Figure 5A) was “no changes in the morphology of epithelial cells” and the “HSV-1-positive cells in OTG sections (immunohistology)” value ([2]; 15 μg/ml, anti-HSV-1 immunofluorescence, Figure 5B) was “absent”. For the same compound, the “interaction with heparan sulfate (Azure A release, absorbance at 630 nm)” value [3] was “releases Azure A from HS”, the “activity against HSV-1 clinical strains” value ([4]; Figure 4) was “inhibits all selected HSV-1 clinical strains” and the “inhibition of replication of clinical strains” value ([4]; all tested strains: 294.1, C08R (drug-sensitive), 615.9, C10B (drug-resistant)) was about 3 logs.
